Results taken from patent US8716478B2, “Boron-containing small molecules” (Anacor Pharmaceuticals, Inc., priority 2010, dated 2014).
pIC50: −log10 of the molar value. Read-outs that look alike come from different tables or passages of the source.

Experiments:
human PDE4 enzyme = assay: Phosphodiesterase 4 (PDE4) inhibition, semi-purified enzyme from human U937 cells; format: biochemical
[1] = tested on: TNF-α in peripheral blood mononuclear cells (PBMCs); assay: TNF-α inhibition in LPS-stimulated peripheral blood mononuclear cells; format: cell-based; details: PBMC
Description: Peripheral blood mononuclear cells (PBMCs) pooled from 10-20 donors were obtained from a local blood bank, ficoll gradient purified, and stored frozen in liquid nitrogen. Cells were thawed and seeded into 96-well plates at 5×10^5 cells/well in RPMI 1640 with 10% heat-inactivated fetal calf serum (MediaTech, Inc, Hearndon, Va., USA), Test articles were evaluated at the indicated concentrations in 150 μL media containing <2% DMSO, final, with stimulant and PBMCs. Cells were stimulated with lipopolysaccharide (LPS, phenol-extract from E. coli, Sigma-Aldrich, St. Louis, Mo.) at 1 μg/mL. Stimulation was with LPS for 24 h to measure TNF-α. Cytokines in supernatants were analyzed with a FACSArray flow cytometer (BD Biosciences, San Jose, Calif., USA) using the BD Cytometric Bead Array (CBA) Flex Set (BD Biosciences). IC50 values were calculated using the four parameter logistic equation.

[2] = Pharmacokinetics and oral bioavailability after IV and PO dosing; format: in vivo, female CD-1 mice; details: plasma; for bioavailability / AUC: female, CD-1, mouse; for bioavailability: po; for AUC: 10 mg/kg oral suspension dose; for clearance: mouse, 5 mg/kg, female CD-1 mice, intravenous
Description: The objective of this study was to evaluate the pharmacokinetics and oral bioavailability of PDE4 inhibitors following intravenous (IV) administration and oral (PO) doses in female CD-1 mice.
After dosing, blood samples were collected through 24 h, twice from each animal at specific times (3 mice/time point), into microcentrifuge tubes containing K2EDTA (anticoagulant), stored on wet ice and processed for plasma. The plasma samples were analyzed for concentrations of parent compound by LC/MS/MS using an internal standard/peak area method. Pharmacokinetic analysis of the mean plasma concentration-time profiles following IV and PO administration was performed.
[…] Dosing solutions for intravenous administration were prepared in 55% PEG300/25% PG/20% water. Oral dosing used a suspension prepared in 1% CMC in water with 0.1% Tween 80.
After dosing, blood samples were collected through 24 h, twice from each animal via retro-orbital bleed (˜0.1 mL, 1st time point) or cardiac puncture (˜0.6 mL, 2nd time point) at specific times (3 mice/time point), into microcentrifuge tubes containing K2EDTA (anticoagulant) and stored on wet ice prior to processing.
Plasma was prepared by centrifugation of blood samples for 6 min at approximately 2000×g or 6000 rpm at 4° C. All processed plasma samples (˜50 μL and 300 μL) were transferred to analysis tubes, placed on dry ice immediately and later stored at −80° C. until analysis for concentrations of experimental compound by LC/MS/MS.
Mouse IV clearance, Mouse Oral AUC and Oral Bioavailability are provided below. 6-(1-Hydroxy-1,3-dihydrobenzo[c][1,2]oxaborol-5-yloxy)-2-(2-isopropoxyethoxy)nicotinonitrile (D140) and 6-(1-hydroxy-1,3-dihydrobenzo[c][1,2]oxaborol-5-yloxy)-2-(4-oxopentyloxy)nicotinonitrile (D141) are disclosed in U.S. patent application Ser. No. 12/399,015, filed Mar. 5, 2009.

TNF-α = assay: In vivo TNF-α release in LPS treated mice; set-up: species or system Swiss Webster mice
Description: In vivo TNF-α release was measured in Swiss Webster mice, 10/group. Animals were dosed via oral gavage with drug 1% CMC suspension. Thirty minutes later LPS, 1.5 mg/kg was administered by intraperitoneal injection. Ninety minutes later animals were sacrificed, blood was collected by exsangination and serum prepared for analysis. TNF-α concentration was assessed by ELISA, non-drug treated animals had TNF-α levels 1000-3000 pg/mL. 6-(1-Hydroxy-1,3-dihydrobenzo[c][1,2]oxaborol-5-yloxy)-2-(2-isopropoxyethoxy)nicotinonitrile (D140) and 6-(1-hydroxy-1,3-dihydrobenzo[c][1,2]oxaborol-5-yloxy)-2-(4-oxopentyloxy)nicotinonitrile (D141) are disclosed in U.S. patent application Ser. No. 12/399,015, filed Mar. 5, 2009.

[3] = 1 μM cAMP, 20 minutes at 25° C., read-out: PDE4 IC50
[4] = PBMCs, LPS 1 μg/mL for 24 h, read-out: Proinflammatory TNF-α IC50

| bioavailability [2] [%] | AUC [2] [ng·h/mL] | clearance [2] [mL/min/kg] | Structure (SMILES) | pIC50 (human PDE4 enzyme; [3]) | pIC50 [1, 4] | pIC50 (human PDE4 enzyme; under similar conditions, read-out: PDE4 IC50 value) | % Inhibition of TNFa Blood Levels in LPS Treated Mice (TNF-α; Oral Dose 3 mg/kg) [%] | % Inhibition of TNFa Blood Levels in LPS Treated Mice (TNF-α; Oral Dose 10 mg/kg) [%] | % Inhibition of TNFa Blood Levels in LPS Treated Mice (TNF-α; Oral Dose 30 mg/kg) [%] | pIC50 ([1]; under similar conditions, read-out: TNF-α IC50 value) |
| --- | --- | --- | --- | --- | --- | --- | --- | --- | --- | --- |
| 71 | 17000 | 7.83 | CC(=O)CCCOc1nc(Oc2cc3c(cc2F)B(O)OC3)c(Cl)cc1C#N [Compound D250, 5-Chloro-6-(6-fluoro-1-hydroxy-1,3-dihydrobenzo[c][1,2]oxaborol-5-yloxy)-2-(4-oxopentyloxy)nicotinonitrile] | – | 9.39 | – | – | – | – | – |
| – | 5840 | 20.2 | N#Cc1cc(Cl)c(Oc2ccc3c(c2)COB3O)nc1OCCOC(F)(F)F [Compound D235] | – | 8.66 | – | – | – | – | – |
| – | – | – | Cc1cc(Oc2nc(OCCOC(C)C)c(C#N)cc2Cl)cc2c1B(O)OC2 [Compound D245, 5-Chloro-6-(1-hydroxy-7-methyl-1,3-dihydrobenzo[c][1,2]oxaborol-5-yloxy)-2-(2-isopropoxyethoxy)nicotinonitrile] | 8.70 | 7.59 | – | – | – | – | – |
| – | – | – | COCC(COc1nc(Oc2ccc3c(c2)COB3O)c(Cl)cc1C#N)OC (centres unmarked) [Compound D232, 5-Chloro-2-(2,3-dimethoxypropoxy)-6-(1-hydroxy-1,3-dihydrobenzo[c][1,2]oxaborol-5-yloxy)nicotinonitrile] | 7.64 | 7.01 | – | – | – | – | – |
| – | – | – | CC(=O)CCCOc1nc(Oc2ccc3c(c2)COB3O)c(C#N)cc1Cl [Compound D253, 5-Chloro-2-(1-hydroxy-1,3-dihydrobenzo[c][1,2]oxaborol-5-yloxy)-6-(4-oxopentyloxy)nicotinonitrile] | 9.60 | 9.24 | – | – | – | – | – |
| 58 | 110000 | 1.05 | CC(C)OCCOc1nc(Oc2cc(F)c3c(c2)COB3O)cc(C(F)(F)F)c1C#N [Compound D254, 6-(7-fluoro-1-hydroxy-1,3-dihydrobenzo[c][1,2]oxaborol-5-yloxy)-2-(2-isopropoxyethoxy)-4-(trifluoromethyl)nicotinonitrile] | – | 8.46 | – | – | – | – | – |
| 100 | 3300 | 59.1 | CC(C)OCCOc1nc(Oc2cc3c(cc2F)B(O)OC3)c(Cl)cc1C#N [Compound D249, 5-Chloro-6-(6-fluoro-1-hydroxy-1,3-dihydrobenzo[c][1,2]oxaborol-5-yloxy)-2-(2-isopropoxyethoxy)nicotinonitrile] | – | 8.64 | – | – | – | – | – |
| – | 6300 | 44.5 | [2H]C1([2H])OB(O)c2ccc(Oc3nc(OCCOC(C)C)c(C#N)cc3Cl)cc21 [Compound D251, 5-Chloro-6-(3,3-dideuterio-1-hydroxy-1,3-dihydrobenzo[c][1,2]oxaborol-5-yloxy)-2-(2-isopropoxyethoxy)nicotinonitrile] | – | 8.64 | – | – | – | – | – |
| 65 | 11200 | 9.85 | CC(C)OCCOc1nc(Oc2ccc3c(c2)COB3O)c(C(F)(F)F)cc1C#N [Compound D238, 6-(1-Hydroxy-1,3-dihydrobenzo[e][1,2]oxaborol-5-yloxy)-2-(2-isopropoxyethoxy)-5-(trifluoromethyl)nicotinonitrile] | – | 8.96 | – | – | – | – | – |
| 100 | 13600 | 23.3 | CC(=O)CCCOc1nc(Oc2ccc3c(c2)COB3O)c(C#N)cc1C#N [Compound D244, 2-(1-Hydroxy-1,3-dihydrobenzo[c][1,2]oxaborol-5-yloxy)-6-(4-oxopentyloxy)pyridine-3,5-dicarbonitrile] | – | 9.68 | – | – | – | – | – |
| 100 | 6920 | 26.8 | CC(C)OCCOc1nc(Oc2ccc3c(c2)COB3O)c(C2CC2)cc1C#N [Compound D237, 5-cyclopropyl-6-(1-hydroxy-1,3-dihydrobenzo[c][1,2]oxaborol-5-yloxy)-2-(2-isopropoxyethoxy)nicotinonitrile] | – | 8.82 | – | – | – | – | – |
| – | – | – | CC(=O)CCCOc1nc(Oc2cc(C)c3c(c2)COB3O)c(Cl)cc1C#N [Compound D246, 5-Chloro-6-(1-hydroxy-7-methyl-1,3-dihydrobenzo[c][1,2]oxaborol-5-yloxy)-2-(4-oxopentyloxy)nicotinonitrile] | 8.89 | 7.96 | – | – | – | – | – |
| – | – | – | N#Cc1cc(Cl)c(Oc2ccc3c(c2)COB3O)nc1OCCOC1CC1 [Compound D239, 5-Chloro-2-(2-cyclopropoxyethoxy)-6-(1-hydroxy-1,3-dihydrobenzo[c][1,2]oxaborol-5-yloxy)nicotinonitrile] | 8.89 | 9.19 | – | – | – | – | – |
| 100 | 5620 | 34.2 | CC(=O)CCCOc1nc(Oc2ccc3c(c2)COB3O)c(C2CC2)cc1C#N [Compound D236, 5-cyclopropyl-6-(1-hydroxy-1,3-dihydrobenzo[c][1,2]oxaborol-5-yloxy)-2-(4-oxopentyloxy)nicotinonitrile] | – | 9.47 | – | – | – | – | – |

| Structure (SMILES) | bioavailability [2] [%] | AUC [2] [ng·h/mL] | clearance [2] [mL/min/kg] | pIC50 (human PDE4 enzyme; [3]) | pIC50 [1, 4] | pIC50 (human PDE4 enzyme; under similar conditions, read-out: PDE4 IC50 value) | % Inhibition of TNFa Blood Levels in LPS Treated Mice (TNF-α; Oral Dose 3 mg/kg) [%] | % Inhibition of TNFa Blood Levels in LPS Treated Mice (TNF-α; Oral Dose 10 mg/kg) [%] | % Inhibition of TNFa Blood Levels in LPS Treated Mice (TNF-α; Oral Dose 30 mg/kg) [%] | pIC50 ([1]; under similar conditions, read-out: TNF-α IC50 value) |
| --- | --- | --- | --- | --- | --- | --- | --- | --- | --- | --- |
| CC(C)OCCOc1nc(Oc2ccc3c(c2)COB3O)cc(C(F)(F)F)c1C#N [Compound D241, 6-(1-hydroxy-1,3-dihydrobenzo[c][1,2]oxaborol-5-yloxy)-2-(2-isopropoxyethoxy)-4-(trifluoromethyl)nicotinonitrile] | 100 | 14900 | 14.2 | 8.96 | 8.54 | – | – | – | – | – |
| CC(=O)CCCOc1nc(Oc2ccc3c(c2)COB3O)cc(C(F)(F)F)c1C#N [Compound D242, 6-(1-Hydroxy-1,3-dihydrobenzo[c][1,2]oxaborol-5-yloxy)-2-(4-oxopentyloxy)-4-(trifluoromethyl)nicotinonitrile] | 15 | 590 | 567 | 8.66 | 9.68 | – | – | – | – | – |
| CC(=O)CCCOc1nc(Oc2cc(F)c3c(c2)COB3O)c(Cl)cc1C#N [Compound D248, 5-Chloro-6-(7-fluoro-1-hydroxy-1,3-dihydrobenzo[c][1,2]oxaborol-5-yloxy)-2-(4-oxopentyloxy)nicotinonitrile] | 79 | 91000 | 1.83 | 8.77 | 9.03 | – | – | – | – | – |
| CC(C)OCCOc1nc(Oc2ccc3c(c2)COB3O)c(C#N)cc1C#N [Compound D243, 2-(1-Hydroxy-1,3-dihydrobenzo[c][1,2]oxaborol-5-yloxy)-6-(2-isopropoxyethoxy)pyridine-3,5-dicarbonitrile] | 96 | 3900 | 50 | 8.19 | 8.96 | – | – | – | – | – |
| CC(C)OCCOc1nc(Oc2cc(F)c3c(c2)COB3O)c(Cl)cc1C#N [Compound D247, 5-Chloro-6-(7-fluoro-1-hydroxy-1,3-dihydrobenzo[c][1,2]oxaborol-5-yloxy)-2-(2-isopropoxyethoxy)nicotinonitrile] | 100 | 21000 | 18.3 | 7.72 | 8.54 | – | – | – | – | – |
| CC(=O)CCCOc1nc(Oc2ccc3c(c2)COB3O)ccc1C#N [Compound D141, 6-(1-hydroxy-1,3-dihydrobenzo[c][1,2]oxaborol-5-yloxy)-2-(4-oxopentyloxy)nicotinonitrile, reference compound] | 32 | 1300 | 43.3 | – | – | 8.51 | 36.1 | 52.4 | 67.1 | 8.92 |
